Results on six compounds are retold here after publication PMC9503446, “Effects of Medicinal Leech-Related Cationic Antimicrobial Peptides on Human Blood Cells and Plasma” (Molecules, 2022).

Data set [1] relates to blood plasma coagulation (intrinsic and final common pathways). In words: Plasma coagulation assay, activated partial thromboplastin time (APTT). Details: species or system human. The settings on record: for APTT change from the control value: 25, 50, 100 μM peptide in plasma; for APTT prolongation versus control: 15 min pre-incubation at room temperature. The method, then:
(§1) Plasma samples (50 μL) were incubated for 15 min at room temperature with 0, 25, 50 or 100 μM CAMP, and then the coagulation assay steps were carried out according the manufacturer’s instructions.
(§2) The plasma coagulation tests were performed using an APG4-03-Pkh hemostasis analyzer (EMCO Llc, Moscow, Russia) and MLT-APTT and MLT-THROMBOPLASTIN reagent kits (MLT Llc, Moscow, Russia) according to the manufacturer’s instructions. Testing was performed on Plasma N (normal), a mixed pool of citrate anticoagulated plasma obtained from healthy donors, manufactured by RENAM Rpd, Moscow, Russia. Fifty microliter plasma samples supplemented with CAMPs at different concentrations (or with PBS as control) were pre-incubated at room temperature for 15 min. Afterward, in case of measuring activated partial thromboplastin time (APTT), 50 μL of APTT Reagent were added. The samples were warmed at 37 °C for 3 min, and 50 μL of Calcium Chloride Solution were added to initiate fibrin clot formation. For measuring prothrombin time (PT), pre-incubated plasma samples were warmed at 37 °C for 1 min, and fibrin clot formation was triggered by adding 100 μL of Thromboplastin Reagent.

Data set [2] concerns blood plasma coagulation (extrinsic and common pathways). In words: Plasma coagulation assay, prothrombin time (PT). On the set-up: species or system human. The settings on record: for Effect on PT: 25, 50, 100 μM peptide in plasma; for PT increase compared to control: 15 min pre-incubation at room temperature. On the procedure: as §1, §2
Data set [3] has as its system Escherichia coli. The following applies: cited from earlier work. The source says: Table 1 Cationic antimicrobial peptides (CAMPs) used in this study and their characteristics. | column: MIC, μM (E. coli)
Data set [4] has as its system isolated neutrophils. Description: Luminol-dependent chemiluminescence, neutrophil respiratory burst. It counts as cell-based, human. The following applies: for Neutrophil respiratory burst (luminol-dependent chemiluminescence) in response to peptide-pretreated plasma: final peptide 5 μM or 20 μM, final plasma dilution 1:50, 37 °C. On the procedure:
Neutrophils and plasma were obtained from the same person. Plasma diluted five times in complete Krebs–Ringer buffer solution was treated with 50 μM or 200 μM CAMP, with plasma dilution and CAMP concentrations being the same as in the samples for hemolysis assay. The final plasma content in samples for CL measurement was restricted to no higher than 2%, since plasma constituents can inhibit luminol-dependent CL due to the scavenging effect. Following the addition of luminol to neutrophils, light emission recording was started. Spontaneous cell activation, if it occurred, was allowed to complete, and then the CAMP-containing plasma or control plasma was added (Figure 6), yielding a final plasma dilution of 1:50 and a final CAMP concentration of 5 μM or 20 μM. […] The effect was dose-dependent (Figure 6).
Chemiluminescence study was conducted at 37 °C with a Lum-1200 chemiluminometer (DISoft Llc, Moscow, Russia) measuring the intensity of emitted light in volts. Assays were performed with the following components in a total volume of 500 μL:435 μL of neutrophil suspension (final, 0.5 × 10^6 cells/mL) in complete Krebs–Ringer buffer solution, 10 μL of luminol (final, 200 μM), 50 μL of five-fold diluted (in the above buffer solution) autologous plasma containing or not containing CAMP at a desired concentration, 5 μL of PMA (final, 160 nM).
Neutrophils were placed in chemiluminometer cuvettes and equilibrated at 37 °C in the cuvette holder, after which luminol was added to each sample and the light emission was continuously recorded. In desired time intervals, plasma mixed with CAMP (or control plasma) and then PMA were added.

In data set [5] the test system is neutrophils in whole blood. In words: Neutrophil extracellular trap (NET) assay in whole blood. The following applies: for NET concentration versus control blood: 100 μM peptide, ex vivo blood, 3 h, 37 °C, no PMA. The class given is cell-based, human. The method, then: EDTA-anticoagulated capillary blood was obtained via a finger prick. Blood aliquots of 20 μL were placed in 1.5 mL Eppendorf tubes and mixed with 2 μL of a CAMP solution (or 2 μL of PBS in controls). The samples were incubated for 3 h. After the first 1 h, PMA (100 nM final concentration) was added to a part of them, and incubation continued for a further 2 h. Cell settling was prevented by continuous gentle turning the tubes up and down using a Multi Bio RS-24 rotator (Biosan, Riga, Latvia). The blood was retained at the tube bottom by surface tension.
NET counts were performed using standardized blood smears stained by Romanowsky method. The smears were examined using a Motic B microscope (Motic, Xiamen, China). Quantitative assessment of NETs was performed as described previously. NETs among 300–500 leukocytes were counted in the middle third part of the smear, and the NETs-to-leukocyte percentage ratio was calculated. Based on counting results, the number of NETs in 1 μL of blood was calculated. In each experiment, two parallel samples were prepared and three parallel smears were taken from each at each observation point.

Data set [6] deals with erythrocytes. In words: Morphological observation of isolated erythrocytes (aggregation). It counts as cell-based, human. On the procedure:
Pept_3 stood out from the other four CAMPs in that it not only lysed, but also aggregated cells. An erythrocyte aggregate formed is illustrated by Figure 2. Samples for morphological observation of erythrocytes were the same as those for hemolysis assay. After incubation at 37 °C for 0.5 h, the samples were processed to fix with glutaraldehyde for qualitative morphological evaluation with light microscopy. A glutaraldehyde fixation method was applied for isolated cells to prevent damage that can occur during preparing smears, which are good for cells in blood.
Samples for morphological observation of erythrocytes were the same as those for hemolysis assay. After incubation at 37 °C for 0.5 h, the samples were centrifuged at 100× g for 5 min, following which the supernatant was removed and the cells fixed by resuspending them in 0.5 mL of 1% glutaraldehyde solution in PBS. Then, erythrocytes were left for 3 h at room temperature, with regular mixing. The fixed cells were stored at 4 °C until use. The supernatant over settled cells was withdrawn, and a cell aliquot was placed in a small workspace cut in the piece of scotch tape put on a microscope slide. Images were examined using a Motic B light microscope (Motic, Xiamen, China).

≈ marks a conversion by molar mass, not a printed value. Residues, ends and D or L forms follow the SMILES beside them. No end group written: not given here.

In the case of “FLIGKAIKRKFCLRSVWNA [pept_7, synthetic short cationic antimicrobial peptide designed by bioinformatic analysis of the medicinal leech genome and microbiome]”, the “APTT change from the control value” in data set [1] is recorded as “did not cause significant changes”. In addition, the “Effect on PT” value in data set [2] is listed as “did not cause significant changes”. In addition, the “MIC (E. coli)” value in data set [3] is 14.3 µM.
As to `CC(C)C[C@H](NC(=O)[C@H](Cc1ccccc1)NC(=O)[C@H](CS)NC(=O)[C@@H](NC(=O)[C@H](CC(C)C)NC(=O)[C@H](CCCNC(=N)N)NC(=O)[C@H](Cc1c[nH]c2ccccc12)NC(=O)[C@@H](N)CCCNC(=N)N)C(C)C)C(=O)N[C@@H](CS)C(=O)N[C@@H](CCCNC(=N)N)C(=O)N[C@@H](CCCNC(=N)N)C(=O)N[C@@H](CCCCN)C(=O)N[C@@H](CCCCN)C(=O)N[C@H](C(N)=O)C(C)C` [pept_3] (H-RWRLVCFLCRRKKV-NH2; N-terminus and C-terminus assumed), the “Neutrophil respiratory burst (luminol-dependent chemiluminescence) in response to peptide-pretreated plasma” value in data set [4] is recorded as “CL increase, though relatively low”. The “NET concentration versus control blood” value in data set [5] is listed as “No significant difference”. Also, in data set [1] (100 μM peptide in plasma), the “APTT prolongation versus control” value was around 390%. Also, the figures for the “PT increase compared to control” value in data set [2] (25 μM peptide in plasma), in data set [2] (50 μM peptide in plasma) and in data set [2] (100 μM peptide in plasma) were “about 165%”, 320% and around 780%, respectively. For the same compound, the Erythrocyte aggregation entry in data set [6] (50 μM peptide in PBS, 0.5 h, 37 °C, glutaraldehyde fixation, light microscopy) is reported as “induces erythrocyte aggregation”. Besides, the “Erythrocyte aggregation, peptide preincubated with plasma” value in data set [6] (peptide preincubated with plasma) is listed as “no cell aggregation was observed”. In data set [3], the “MIC (E. coli)” value is 17 µM (≈ 31.7 µg/mL).
On to `CCCCCCCCCCCCCC(=O)O[C@@H]1[C@@H](C)[C@@]2(O)[C@@H](C=C(CO)C[C@]3(O)C(=O)C(C)=C[C@@H]23)[C@@H]2C(C)(C)[C@]12OC(C)=O` [PMA, phorbol-12-myristate-13-acetate, reference compound], for which the “ROS production by neutrophils (luminol-dependent chemiluminescence)” value in data set [4] (PMA added after CAMP-containing plasma, final 160 nM) is given as “induced a high ROS production”. For the same compound, in data set [5] (100 nM, with or without CAMPs), the “Neutrophil activation in whole blood (morphology)” value is reported as “resulted in neutrophil activation”.
As for “KFKKVIWKSFL-NH2 (C-terminus assumed) [pept_4]”, the “Neutrophil respiratory burst (luminol-dependent chemiluminescence) in response to peptide-pretreated plasma” value in data set [4] is “no development of the respiratory burst”. Moreover, in data set [5], the “NET concentration versus control blood” value is given as “No significant difference”. The “APTT change from the control value” in data set [1] is listed as “No significant APTT change”. In addition, the “Effect on PT” value in data set [2] is recorded as “not significantly affected”. For the same compound, the “MIC (E. coli)” value in data set [3] was 90 µM.
As to “RAVIYKIPYNAIASRWIIAPKKC [pept_8, synthetic short cationic antimicrobial peptide designed by bioinformatic analysis of the medicinal leech genome and microbiome]”, in data set [1] (100 μM peptide in plasma), the “APTT prolongation versus control” value is “about 45%”. Also, the “MIC (E. coli)” value in data set [3] is 24 µM.
In the case of “RLKRFKRVALRREKTARNFRSIVS [pept_6, synthetic short cationic antimicrobial peptide designed by bioinformatic analysis of the medicinal leech genome and microbiome]”, the “APTT increase over the control value” in data set [1] (25 μM peptide in plasma) turned out to be 1.3 fold; in data set [1] (50 μM peptide in plasma) it was 2.1 fold; in data set [1] (100 μM peptide in plasma), 2.9 fold. The “Effect on PT” value in data set [2] is “no significant effect”. For the same compound, the “MIC (E. coli)” value in data set [3] was above 100 µM.
